Experimental data taken from US20210213010A1, “TLR7/8 AGONISTS AND LIPOSOME COMPOSITIONS” (Torque Therapeutics, Inc., priority 2018, published 2021).
Values joined by “and” are separate entries in the source; they are usually repeats but may differ in a detail not shown here. Equal values may be shown once.

Columns and labels:
[1] = Remote loading efficiency of small molecules into liposomes (PD-10 size exclusion, HPLC); format: physicochemical; settings: mean (SD), n = 2
Method: A solution of the small molecule (modified TLR agonist) was lyophilized in a vial equipped with a magnetic stir bar over night to form a fluffy white powder. This powder was added either formulation F1 or F2 to the wanted drug/lipid ratio. The resulting mixture was stirred at 55° C. or 41° C. for formulation F1 and F2 respectively for 3h, then allowed to cool to rt before the solutions were refrigerated and stored at 4° C.
Remote loading efficiency was determined at 1 h and 3 h by taking out 100 μL of the mixture and applying this and 900 μL buffer (25 mM HEPES, 10 vol % sucrose buffer, pH 7.4) to a PD-10 column size exclusion column. Following, 10×1 mL fractions were collected, and the small molecule compound concentrations in the loading mixture and in the liposome containing fractions were determined on analytical HPLC. Loading efficiency was calculated as percentage of molecules found in liposome containing fractions out of the applied amount. The general procedure for the small molecule remote loading is visualized in FIG. 3. The general concept of remote loading imidazoquinolines in liposomes that are dialyzed against HEPES is visualized in FIG. 4.

mTLR7 = target: T1, mTLR7 (Mus musculus, UniProt P58681); assay: NF-κB induction in HEK-Blue mTLR7 reporter cells; format: cell-based; settings: free compounds, 16 h
T1 construct: host or cells: HEK-Blue (HEK293-derived) reporter cells
T1 sequence (P58681 27-1050): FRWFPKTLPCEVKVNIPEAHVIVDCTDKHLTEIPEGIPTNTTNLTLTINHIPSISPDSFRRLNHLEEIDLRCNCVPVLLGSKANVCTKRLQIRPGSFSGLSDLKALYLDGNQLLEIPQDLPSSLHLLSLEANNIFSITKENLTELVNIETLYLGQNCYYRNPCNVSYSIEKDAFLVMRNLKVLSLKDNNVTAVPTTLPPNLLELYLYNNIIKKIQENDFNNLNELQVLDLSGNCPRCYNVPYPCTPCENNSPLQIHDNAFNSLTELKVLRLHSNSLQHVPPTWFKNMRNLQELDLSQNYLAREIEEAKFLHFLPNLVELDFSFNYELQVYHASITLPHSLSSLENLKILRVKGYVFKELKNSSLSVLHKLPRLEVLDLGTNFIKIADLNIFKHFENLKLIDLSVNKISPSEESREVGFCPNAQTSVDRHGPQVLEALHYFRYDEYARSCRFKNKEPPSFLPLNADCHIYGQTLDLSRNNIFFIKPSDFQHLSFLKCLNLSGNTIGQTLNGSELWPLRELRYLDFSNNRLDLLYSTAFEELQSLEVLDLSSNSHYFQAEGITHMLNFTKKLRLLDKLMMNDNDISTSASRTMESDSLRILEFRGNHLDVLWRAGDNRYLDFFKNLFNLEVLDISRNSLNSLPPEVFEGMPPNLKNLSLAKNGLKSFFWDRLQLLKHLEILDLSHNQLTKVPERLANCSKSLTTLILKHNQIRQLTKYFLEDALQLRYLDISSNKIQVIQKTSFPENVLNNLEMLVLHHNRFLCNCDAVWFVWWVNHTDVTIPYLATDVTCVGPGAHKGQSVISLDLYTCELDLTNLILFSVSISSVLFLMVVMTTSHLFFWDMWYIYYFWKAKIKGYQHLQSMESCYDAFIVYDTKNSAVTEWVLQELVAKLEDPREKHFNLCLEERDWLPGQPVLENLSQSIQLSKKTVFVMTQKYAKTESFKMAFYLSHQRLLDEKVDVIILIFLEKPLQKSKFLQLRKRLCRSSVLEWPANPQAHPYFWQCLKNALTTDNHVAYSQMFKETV
From the text: This example describes the general procedure used to assess the compounds' potency to induce NF-κB expression in human embryonic kidney (HEK) cells. The transcription factor NF-κB is expressed upon stimulation of TLR7/8 and is commonly used for quantifying TLR7/8 agonist potencies in reporter cell assays. Conversely, we used HEK-Blue mTLR-7 cells to evaluate the potencies of the synthesized derivatives, as previously reported (Shukla et al, J. Med. Chem. (2010), 53, 4450-4465).
HEK-Blue TLR7 assays were carried out using HEK-Blue™ mTLR7 cells (Invivogen, Toulouse, France, Cat. #hkb-mtlr7). The assays were carried out according to the protocol from Invivogen. TLR expressing cells were cultured in DMEM high glucose (4.5 g/L) supplemented with 10% (v/v) fetal bovine serum (FBS) and 1% (v/v) penicillin-streptomycin (P/S) to 50 U/ml penicillin and […] streptomycin. On the day of the study, the cells were seeded in a 96-well plate (ThermoFisher Scientific, Roskilde, Denmark) with 20 μL imidazoquinoline TLR7/8 agonist solutions per well at varying concentrations by adding 180 μL cell suspension, made by suspending cells to 0.22×10^6 cells per mL in HEK-Blue™ Detection medium (Invivogen, Cat. #hb-det2) added Blasticidin (10 μg/ml) and Zeocin™ (100 μg/ml), leading to a final concentration of 40×10^3 cells per well in triplicates. Cells were incubated with the imidazoquinoline TLR7/8 agonists, formulated in liposomes or dissolved in PBS, at 37° C. with 5% CO2 for 16 h. The response was quantified spectrophotometrically at 655 nm and was normalized to the signal from a blank sample (DMSO dilution) run in parallel.

RAW-Blue cells = assay: NF-κB induction in RAW-Blue reporter cells (RAW 264.7 macrophages, SEAP); format: cell-based; settings: for EC50: RAW-Blue, sigmoidal 4PL fitting, 24 h; for Potency in the RAW-Blue cell assay: compared with R848
From the text: This example describes the general procedure used to assess the compounds' potency to induce NF-κB expression in RAW 264.7 macrophages cells that stably express secreted embryonic alkaline phosphatase (SEAP) upon induction of NF-κB. RAW-Blue™ reporter cells are commonly used for quantifying TLR7/8 agonist potencies in reporter cell assays. Conversely, we used RAW-Blue™ cells to evaluate the potencies of the synthesized derivatives, as previously reported^1. ^1 Ryu et al, J. Am. Chem. Soc. (2014), 136, 10823-10825
RAW 264.7 assays were carried out using RAW-Blue™ cells and QUANTI-Blue™ detection solution (Invivogen, Toulouse, France, at. #raw-sp and rep-qbs respectively). The assays carried out according to the protocol from Invivogen. RAW 264.7 macrophages were cultured in DMEM high glucose (4.5 g/L) supplemented with 10% (v/v) FBS, 1% (v/v) P/S, and Normocin™ (100 μg/ml). On the day of the study, the cells were seeded in a 96-well plate (ThermoFisher Scientific, Roskilde, Denmark) with 20 μL TLR7/8 agonist solutions per well at varying concentrations by adding 180 μL cell suspension, made by suspending cells to 0.55×10^6 cells per mL in the prepared cell medium added Zeocin™ (200 μg/ml), leading to a final concentration of 100×10^3 cells per well in triplicates. Cells were incubated with the TLR7/8 agonists, diluted from 10 mM DMSO stocks in PBS, at 37° C. with 5% CO2 for 24 h for SEAP production. 50 μL SEAP containing cell supernatant from each well was added 150 μL QUANTI-Blue™ detection solution and was incubated at 37° C. for 3-6 h. The resulting response was quantified spectrophotometrically at 640 nm and was normalized to the signal from a blank sample (DMSO dilution) run in parallel.
Half maximal effective concentration (EC50) values were determined from sigmoidal 4PL fittings from the resulting dose-response curves in GraphPad Prism.

[2] = formulation F3, drug/lipid ratio 0.10, 1 h
[3] = formulation F3, drug/lipid ratio 0.10, 3 h

Row | Compound | Remote loading efficiency 1 h (%) [1, 2] | Remote loading efficiency 3 h (%) [1, 3] | Remote loading efficiency 1 h (%) ([1]; formulation F3, drug/lipid ratio 0.25, 1 h) | Remote loading efficiency 3 h (%) ([1]; formulation F3, drug/lipid ratio 0.25, 3 h) | Remote loading efficiency 1 h (%) ([1]; formulation F3, drug/lipid ratio 0.50, 1 h) | Remote loading efficiency 3 h (%) ([1]; formulation F3, drug/lipid ratio 0.50, 3 h) | EC50 (RAW-Blue cells) [nM] | TLR7 agonist activity (NF-κB induction) (mTLR7) | Potency in the RAW-Blue cell assay (RAW-Blue cells)
1 | CCCCc1nc2c(N)nc3ccccc3c2n1Cc1ccc(CNC(=O)[C@@H](N)CC(N)=O)cc1 [MK135, (S)-2-amino-N-(4-((4-amino-2-butyl-1H-imidazo [4,5-c]quinolin-1-yl)methyl)benzyl)succinamide] | 85.9 (4.7) % | 86.4 (5.1) % | 55.5 (5.7) % | 65.0 (7.7) % | 19.5 (0.1) % | 23% and 23.3 (0.3) % | 420 | the lowest potency of all derivatives | 
2 | CCCCc1nc2c(N)nc3ccccc3c2n1Cc1ccc(CNC(=O)[C@@H](N)CCC(N)=O)cc1 [MK136, (S)-2-amino-N-(4-((4-amino-2-butyl-1H-imidazo[4,5-c]quinolin-1-yl)methyl)benzyl)pentanediamide] | 2.0 (0.2) % | 3.1 (0.4) % |  |  |  |  | 740 | the lowest potency of all derivatives | 
3 | CCCCc1nc2c(N)nc3ccccc3c2n1Cc1ccc(CNC(=O)[C@@H](N)C(C)C)cc1 [MK145, (S)-2-amino-N-(4-((4-amino-2-butyl-1H-imidazo[4,5-c]quinolin-1-yl)methyl)benzyl)-3-methylbutanamide] | 97.2 (4.0) % | 92.4 (3.9) % |  |  |  |  | 30 | potencies that were higher or comparable to that of R848 | the most potent compounds
4 | CCCCc1nc2c(N)nc3ccccc3c2n1Cc1ccc(CNC(=O)[C@@H](N)[C@@H](C)CC)cc1 [MK146, (2S,3S)-2-amino-N-(4-((4-amino-2-butyl-1H-imidazo[4,5-c]quinolin-1-yl)methyl)benzyl)-3-methylpentanamide] | 94.1 (2.9) % | 88.4 (1.5) % |  |  |  |  | 40 | potencies that were higher or comparable to that of R848 | greater potencies than R848

The next lines start with results.

Row | Remote loading efficiency 1 h (%) [1, 2] | Remote loading efficiency 3 h (%) [1, 3] | Remote loading efficiency 1 h (%) ([1]; formulation F3, drug/lipid ratio 0.25, 1 h) | Remote loading efficiency 3 h (%) ([1]; formulation F3, drug/lipid ratio 0.25, 3 h) | Remote loading efficiency 1 h (%) ([1]; formulation F3, drug/lipid ratio 0.50, 1 h) | Remote loading efficiency 3 h (%) ([1]; formulation F3, drug/lipid ratio 0.50, 3 h) | EC50 (RAW-Blue cells) [nM] | Compound | TLR7 agonist activity (NF-κB induction) (mTLR7) | Potency in the RAW-Blue cell assay (RAW-Blue cells)
5 | 98.1 (5.2) % | 99.1 (1.8) % |  |  |  |  | 40 | CCCCc1nc2c(N)nc3ccccc3c2n1Cc1ccc(CNC(=O)[C@H](C)N)cc1 [MK137, (S)-2-amino-N-(4-((4-amino-2-butyl-1H-imidazo[4,5-c]quinolin-1-yl)methyl)benzyl)propanamide] | potencies that were higher or comparable to that of R848 | greater potencies than R848
6 | 84.7 (17.4) % | 90.6 (1.6) % |  |  |  |  | 340 | CCCCc1nc2c(N)nc3ccccc3c2n1Cc1ccc(CNC(=O)CN)cc1 [MK139, 2-amino-N-(4-((4-amino-2-butyl-1H-imidazo[4,5-c]quinolin-1-yl)methyl)benzyl)acetamide] | potencies that were higher or comparable to that of R848 | 
7 | 93.6 (0.1) % | 98.3 (3.4) % |  |  |  |  | 50 | CCCCc1nc2c(N)nc3ccccc3c2n1Cc1ccc(CNC(=O)[C@@H]2CCCN2)cc1 [MK140, (S)—N-(4-((4-amino-2-butyl-1H-imidazo[4,5-c]quinolin-1-yl)methyl)benzyl)pyrrolidine-2-carboxamide] | potencies that were higher or comparable to that of R848 | greater potencies than R848
